Where two headings read alike, the source gives them in different places.
Columns and labels:
pressor response to AII = assay: Assay C: In Vivo Intragastric Pressor Assay Response for AII Antagonists; parameters: species or system rat; details: for Assay C Duration: Dose: 3 mg/kg (i.g.), Sprague-Dawley rats, AII challenges up to 180 minutes after gavage; for inhibition in vivo at 3 mg/kg: Rattus norvegicus, po
Method: Assay C: In Vivo Intragastric Pressor Assay Response for AII Antagonists
Male Sprague-Dawley rats weighing 225-300 grams were anesthetized with methohexital (30 mg/kg, i.p.) and catheters were implanted into the femoral artery and vein. The catheters were tunneled subcutaneously to exit dorsally, posterior to the head and between the scapulae. The catheters were filled with heparin (1000 units/ml of saline). The rats were returned to their cage and allowed regular rat chow and water ad libitum. After full recovery from surgery (3-4 days), rats were placed in Lucite holders and the arterial line was connected to a pressure transducer. Arterial pressure was recorded on a Gould polygraph (mmHg). Angiotensin II was administered as a 30 ng/kg bolus via the venous catheter delivered in a 50 μl volume with a 0.2 ml saline flush. The pressor response in mm Hg was measured by the difference from pre-injection arterial pressure to the maximum pressure achieved. The AII injection was repeated every 10 minutes until three consecutive injections yielded responses within 4 mmHg of each other. These three responses were then averaged and represented the control response to AII. The test compound was suspended in 0.5% methylcellulose in water and was administered by gavage. The volume administered was 2 ml/kg body weight. The standard dose was 3 mg/kg. Angiotensin II bolus injections were given at 30, 45, 60, 75, 120, 150, and 180 minutes after gavage. The pressor response to AII was measured at each time point. The rats were then returned to their cage for future testing. A minimum of 3 days was allowed between tests. Percent inhibition was calculated for each time point following gavage by the following formula: [(Control Response−Response at time point)/Control Response]×100.

rabbit aortic rings = assay: Assay B: In Vitro Vascular Smooth Muscle Response for AII (antagonist activity in rabbit aortic rings); format: cell-based; details: Oryctolagus cuniculus, test antagonist at 10^-5 M, AII contraction, read-out: Assay B pA2 (converted)
Method: Assay B: In Vitro Vascular Smooth Muscle-Response for AII
The compounds of the invention were tested for antagonist activity in rabbit aortic rings. Male New Zealand white rabbits (2-2.5 kg) were sacrificed using an overdose of pentobarbital and exsanguinated via the carotid arteries. The thoracic aorta was removed, cleaned of adherent fat and connective tissue and then cut into 3-mm ring segments. The endothelium was removed from the rings by gently sliding a rolled-up piece of filter paper into the vessel lumen. The rings were then mounted in a water-jacketed tissue bath, maintained at 37° C., between moveable and fixed ends of a stainless steel wire with the moveable end attached to an FT03 Grass transducer coupled to a Model 7D Grass Polygraph for recording isometric force responses. The bath was filled with 20 ml of oxygenated (95% oxygen/5% carbon dioxide) Krebs solution of the following composition (mM): 130 NaCl, 15 NaHCO3, […], 1.2 NaH2PO4, 1.2 MgSO4, 2.5 CaCl2, and 11.4 glucose. The preparations were equilibrated for one hour before approximately one gram of passive tension was placed on the rings. Angiotensin II concentration-response curves were then recorded (3×10^−10 to 1×10^−5 M). Each concentration of AII was allowed to elicit its maximal contraction, and then AII was washed out repeatedly for 30 minutes before rechallenging with a higher concentration of AII. Aorta rings were exposed to the test antagonist at 10^−5 M for 5 minutes before challenging with AII. Adjacent segments of the same aorta ring were used for all concentration-response curves in the presence or absence of the test antagonist. The effectiveness of the test compound was expressed in terms of pA2 values and were calculated according to H. O. Schild [Br. J. Pharmacol. Chemother., 2,189-206 (1947)]. The PA2 value is the concentration of the antagonist which increases the EC50 value for AII by a factor of two. Each test antagonist was evaluated in aorta rings from two rabbits.

[1] = target: smooth muscle angiotensin II receptor; assay: Assay A: Angiotensin II Binding Activity (125I-angiotensin II displacement, rat uterine membrane preparation); details: 50% displacement of specifically bound 125I-AII, rat uterine membranes, 25° C., 60 min
Method: Assay A: Angiotensin II Binding Activity
Compounds of the invention were tested for ability to bind to the smooth muscle angiotensin II receptor using a rat uterine membrane preparation. […] Other chemicals were obtained from Sigma Chemical Co. This assay was carried out according to the method of Douglas et al [Endocrinology, 106, 120-124 (1980)]. Rat uterine membranes were prepared from fresh tissue. All procedures were carried out at 4° C. Uteri were stripped of fat and homogenized in phosphate-buffered saline at pH 7.4 containing 5 mM EDTA. The homogenate was centrifuged at 1500×g for 20 min., and the supernatant was recentrifuged at 100,000×g for 60 min. The pellet was resuspended in buffer consisting of 2 mM EDTA and 50 mM Tris-HCl (pH 7.5) to a final protein concentration of 4 mg/ml. Assay tubes were charged with 0.25 ml of a solution containing 5 mM MgCl2, 2 mM EDTA, 0.5% bovine serum albumin, 50 mM Tris-HCl, pH 7.5 and […] (approximately 10^5 cpm) in the absence or in the presence of unlabelled ligand. The reaction was initiated by the addition of membrane protein and the mixture was incubated at 25° C. for 60 min. The incubation was terminated with ice-cold 50 mM Tris-HCl (pH 7.5) and the mixture was filtered to separate membrane-bound labelled peptide from the free ligand. The incubation tube and filter were washed with ice-cold buffer. Filters were assayed for radioactivity in a Micromedic gamma counter. Nonspecific binding was defined as binding in the presence of 10 μM of unlabelled AII. Specific binding was calculated as total binding minus nonspecific binding. […] Binding data were analyzed by a nonlinear least-squares curve fitting program.

[2] = first value of the pair (aorta rings from two rabbits)
[3] = second value of the pair (aorta rings from two rabbits)

CCCCCn1cc(CCCC)n(Cc2ccc(-c3ccccc3-c3nnn[nH]3)nc2)c1=O [Example 15, 1-pentyl-4-butyl-1,3-dihydro-3-[[6-[2-(1H-tetrazol-5-yl)phenyl]-3-pyridinyl]methyl]-2H-imidazol-2-one]
Assay C Duration (pressor response to AII): >180 min
inhibition in vivo at 3 mg/kg (pressor response to AII): 60%
melting point: 162 to 164 °C
Kb (rabbit aortic rings; [2]): 1.62 nM
Kb (rabbit aortic rings; [3]): 1.41 nM
IC50 [1]: 10 nM

CCCCc1cn(CC(C)(C)C)c(=O)n1Cc1ccc(-c2ccccc2-c2nnn[nH]2)nc1 [Example 18, 1-neopentyl-4-butyl-1,3-dihydro-3-[[6-[2-(1H-tetrazol-5-yl)phenyl]-3-pyridinyl]methyl]-2H-imidazol-2-one]
Assay C Duration (pressor response to AII): >180 min
inhibition in vivo at 3 mg/kg (pressor response to AII): 65%
melting point: 194.5 to 195 °C
Kb (rabbit aortic rings; [2]): 1.62 nM
Kb (rabbit aortic rings; [3]): 2.29 nM
IC50 [1]: 12 nM

CCCCc1cn(CC(CC)CC)c(=O)n1Cc1ccc(-c2ccccc2-c2nnn[nH]2)nc1 [Example 20, 1-(2-ethylbutyl)-4-butyl-1,3-dihydro-3-[[6-[2-(1H-tetrazol-5-yl)phenyl]-3-pyridinyl]methyl]-2H-imidazol-2-one]
Assay C Duration (pressor response to AII): >180 min
inhibition in vivo at 3 mg/kg (pressor response to AII): 75%
melting point: 174 to 176 °C (dec.)
Kb (rabbit aortic rings; [2]): 0.676 nM
Kb (rabbit aortic rings; [3]): 1.38 nM
IC50 [1]: 16 nM

CCCCc1cn(C2CCCCC2)c(=O)n1Cc1ccc(-c2ccccc2-c2nnn[nH]2)nc1 [Example 21, 1-cyclohexyl-4-butyl-1,3-dihydro-3-[[6-[2-(1H-tetrazol-5-yl)phenyl]-3-pyridinyl]methyl]-2H-imidazol-2-one]
Assay C Duration (pressor response to AII): >180 min
inhibition in vivo at 3 mg/kg (pressor response to AII): 40%
melting point: 202 to 203 °C (dec.)
Kb (rabbit aortic rings; [2]): 0.724 nM
Kb (rabbit aortic rings; [3]): 0.708 nM
IC50 [1]: 20 nM

CCCCc1cn(CCC2CC2)c(=O)n1Cc1ccc(-c2ccccc2-c2nnn[nH]2)nc1 [Example 22, 1-(2-cyclopropylethyl)-4-butyl 1,3-dihydro3-[[6-[2-(1H-tetrazol-5-yl)phenyl]-3-pyridinyl]methyl]-2H-imidazol-2-one]
Assay C Duration (pressor response to AII): >180 min
inhibition in vivo at 3 mg/kg (pressor response to AII): 30%
melting point: 182 to 183 °C
Kb (rabbit aortic rings; [2]): 1.78 nM
Kb (rabbit aortic rings; [3]): 1.29 nM
IC50 [1]: 5.4 nM

CCCCc1cn(CC2CCCC2)c(=O)n1Cc1ccc(-c2ccccc2-c2nnn[nH]2)nc1 [Example 24, 1-cyclopentylmethyl-4-butyl-1,3-dihydro-3-[[6-[2-(1H-tetrazol-5-yl)phenyl]-3-pyridinyl]methyl]-2H-imidazol-2-one]
Assay C Duration (pressor response to AII): >180 min
inhibition in vivo at 3 mg/kg (pressor response to AII): 50%
melting point: 204 °C (dec.)
Kb (rabbit aortic rings; [2]): 0.646 nM
Kb (rabbit aortic rings; [3]): 2.04 nM
IC50 [1]: 22 nM

CCCCc1cn(CCc2cccs2)c(=O)n1Cc1ccc(-c2ccccc2-c2nnn[nH]2)nc1 [Example 25, 1-[2-(2-thienyl)ethyl]-4-butyl-1,3-dihydro-3-[[6-[2-(1H-tetrazol-5-yl)phenyl]-3-pyridinyl]methyl]-2H-imidazol-2-one]
Assay C Duration (pressor response to AII): >180 min
inhibition in vivo at 3 mg/kg (pressor response to AII): 25%
melting point: 137 to 138 °C
Kb (rabbit aortic rings; [2]): 0.389 nM
Kb (rabbit aortic rings; [3]): 0.692 nM
IC50 [1]: 5 nM

CCCCc1cn(-c2ccccc2Cl)c(=O)n1Cc1ccc(-c2ccccc2-c2nnn[nH]2)nc1 [Example 32, 1-(2-chlorophenyl)-4-butyl-1,3-dihydro-3-[[6-[2-(1H-tetrazol-5-yl)phenyl]-3-pyridinyl]methyl]-2H-imidazol-2-one]
Assay C Duration (pressor response to AII): >180 min
inhibition in vivo at 3 mg/kg (pressor response to AII): 50%
melting point: 81 to 83 °C
Kb (rabbit aortic rings; [2]): 1.58 nM
Kb (rabbit aortic rings; [3]): 0.912 nM
IC50 [1]: 5.4 nM
